# Results from PMC13249053, “Mechanism of auranofin toxicity: Inhibition of tetrahydrobiopterin metabolism” (Toxicology and applied pharmacology, 2025).
# Test system: BH4 formation in HaCaT cells
# Experiment: BH4 formation from sepiapterin in intact HaCaT cells (HPLC)
# Type: cell-based, human
# Details: MTX 1 μM, 2 h, then 200 μM sepiapterin 3 h; BH2 accumulates
# Experimental: The growth medium was then removed and the cells incubated with growth medium containing 100 μM sepiapterin. […] BH2 and BH4 were then analyzed on a Jasco high-performance liquid chromatography system (Easton, MD) fitted with a Maxsil-10 C18 column (250 × 4 mm; Phenomenex, Torrance, CA). […] Cell viability following drug treatments was greater than 95 %.
# Fig. 3. Effects of auranofin on BH2 and BH4 production in intact HaCaT cells treated with sepiapterin. HaCaT cells (~1 × 10^6 cells/well in 6 well culture plates) were incubated with control medium or medium containing increasing concentrations of auranofin for 2 h followed by 100 μM sepiapterin. After an additional 3 h, BH2 and BH4 were extracted from the cells and analyzed by HPLC with fluorescence detection. Left panel: Chromatograms showing BH2 and BH4 content of control cells and cells treated with Auranofin.
# Fig. 6. […] Cells were treated with control medium or medium containing MTX (1 μM, 2 h), an inhibitor of DHFR, followed by 200 μM sepiapterin (upper panel) or BH2 (lower panel). After an additional 3 h incubation, cells were rinsed with PBS; BH2 and BH4 were then extracted and analyzed by HPLC as described in the Materials and Methods.
compound,measurement,value
CN(Cc1cnc2nc(N)nc(N)c2n1)c1ccc(C(=O)N[C@@H](CCC(=O)O)C(=O)O)cc1 [methotrexate],effect on formation of BH4 from sepiapterin in HaCaT cells,inhibit the formation of BH4 from sepiapterin
